Each block holds one compound with its values, some of them ahead of it. Calls of active or inactive are those of the source.
Legend:
[1] = molecular target: T1, E3 ubiquitin-protein ligase XIAP (Homo sapiens, UniProt P98170); assay: Counter Screen using XIAP-Bir3 for Chemical Antagonists of Bir1/2 domains of IAP-family anti-apoptotic proteins. [Related pubchem assays (depositor defined):AID1018, AID1449, AID1514, AID1638, AID1749, AID1750, AID488957, AID488963]
[2] = molecular target: T1, E3 ubiquitin-protein ligase XIAP; assay: XIAP antagonists, biochemical, IAP family, fluorescence polarization (AID 1018); format: functional
[3] = enhancers of respiration in Yfh1-depleted yeast, dose response, Friedreich's ataxia, plus single-dose screen (AID 1465); format: functional;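 also: yeast depleted of Yfh1p frataxin homolog grown on glycerol needing respiration; WST-1 tetrazolium dye reduction as measure of cellular dehydrogenase metabolic activity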
[4] = molecular target: Intestinal-type alkaline phosphatase (Homo sapiens, UniProt P09923); assay: activation of human intestinal alkaline phosphatase – biochemical, dose response (AID 488873); format: functional
[5] = molecular target: Intestinal-type alkaline phosphatase (Mus musculus, UniProt P24822); assay: mouse intestinal alkaline phosphatase activators, dose response, biochemical, luminescence, uHTS hits (AID 488783); format: functional
[6] = molecular target: T2, Alkaline phosphatase, tissue-nonspecific isozyme (Homo sapiens, UniProt P05186); assay: TNAP enzyme activators, dose response, selectivity assay for mouse IAP activator project, biochemical, TNAP isozyme, mouse IAP uHTS hits (AID 488880); format: functional
T2 sequence (P05186 whole entry): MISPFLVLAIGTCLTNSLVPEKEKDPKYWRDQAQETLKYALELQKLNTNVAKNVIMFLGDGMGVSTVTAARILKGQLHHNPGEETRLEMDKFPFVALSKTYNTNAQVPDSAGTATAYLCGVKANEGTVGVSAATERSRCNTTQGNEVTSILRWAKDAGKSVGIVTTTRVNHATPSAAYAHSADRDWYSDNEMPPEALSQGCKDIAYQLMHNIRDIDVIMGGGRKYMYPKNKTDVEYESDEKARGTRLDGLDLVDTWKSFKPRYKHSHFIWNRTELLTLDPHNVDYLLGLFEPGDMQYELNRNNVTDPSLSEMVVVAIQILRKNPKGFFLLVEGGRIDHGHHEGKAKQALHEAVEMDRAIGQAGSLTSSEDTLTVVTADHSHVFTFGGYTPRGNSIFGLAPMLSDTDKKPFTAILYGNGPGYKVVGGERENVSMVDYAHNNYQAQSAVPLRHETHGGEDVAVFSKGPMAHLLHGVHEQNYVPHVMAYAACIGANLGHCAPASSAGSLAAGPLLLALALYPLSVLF

[7] = molecular target: 26S proteasome non-ATPase regulatory subunit 14 (Homo sapiens, UniProt O00487); assay: inhibition of proteasome subunit RPN11 – biochemical, fluorescence polarization, uHTS hits, confirmation (AID 602368); format: functional
[8] = molecular target: 72 kDa type IV collagenase (Homo sapiens, UniProt P08253); assay: Dose Response validation of uHTS RPN11 inhibitor hits using a MMP-2 Fluorescence assay.; format: functional
[9] = molecular target: Prothrombin (Bos taurus, UniProt P00735); assay: thrombin inhibition, dose response, biochemical, fluorescence polarization, uHTS hits (AID 602369); format: functional
[10] = molecular target: T3, Rac GTPase-activating protein 1 (Homo sapiens, UniProt Q9H0H5); assay: MgcRacGAP GTPase-activating activity inhibitors, confirmation, biochemical, ADP Hunter fluorescence, primary and confirmatory (AID 624330); format: functional
T3 sequence (Q9H0H5 whole entry): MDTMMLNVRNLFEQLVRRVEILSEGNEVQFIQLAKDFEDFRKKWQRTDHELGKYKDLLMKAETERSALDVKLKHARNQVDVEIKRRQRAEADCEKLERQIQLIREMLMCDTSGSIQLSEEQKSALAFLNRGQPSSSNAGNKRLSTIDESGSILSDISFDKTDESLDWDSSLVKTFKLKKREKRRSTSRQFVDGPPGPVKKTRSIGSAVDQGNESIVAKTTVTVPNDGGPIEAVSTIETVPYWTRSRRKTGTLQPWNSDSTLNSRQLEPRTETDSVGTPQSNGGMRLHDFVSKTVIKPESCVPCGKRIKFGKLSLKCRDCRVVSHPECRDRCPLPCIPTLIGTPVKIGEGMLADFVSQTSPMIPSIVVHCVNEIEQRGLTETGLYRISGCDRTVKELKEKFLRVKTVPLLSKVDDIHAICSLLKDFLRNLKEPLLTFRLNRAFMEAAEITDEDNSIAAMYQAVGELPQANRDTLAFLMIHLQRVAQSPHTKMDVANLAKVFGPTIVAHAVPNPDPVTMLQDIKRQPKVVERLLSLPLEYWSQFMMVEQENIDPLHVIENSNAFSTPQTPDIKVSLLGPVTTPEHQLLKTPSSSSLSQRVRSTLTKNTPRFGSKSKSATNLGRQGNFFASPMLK

[11] = molecular target: T4, G-protein coupled receptor 35 (Homo sapiens, UniProt Q9HC97); assay: SAR analysis of Agonists of the GPR35 Receptor using an Image-Based Assay - Set 4. [Related pubchem assays (depositor defined):AID2013, AID2026]; format: functional
[12] = molecular target: T5, Cannabinoid receptor 1 (Homo sapiens, UniProt P21554); assay: SAR analysis of agonists of the Cannabinoid Receptor 1 using an Image-Based Assay - Set 4. [Related pubchem assays (depositor defined):AID2013, AID2026]; format: functional
[13] = molecular target: T4, G-protein coupled receptor 35; assay: SAR analysis of Antagonists of the GPR35 Receptor using an Image-Based Assay - Set 6. [Related pubchem assays (depositor defined):AID2013, AID2026]; format: functional
[14] = molecular target: T5, Cannabinoid receptor 1; assay: SAR analysis of antagonists of the Cannabinoid Receptor 1 using an Image-Based Assay - Set 4. [Related pubchem assays (depositor defined):AID2013, AID2026]; format: functional
[15] = molecular target: G-protein coupled receptor 55 (Homo sapiens, UniProt Q9Y2T6); assay: SAR Analysis of Selective Antagonists of GPR55 using an Image-Based Assay - Set 4. [Related pubchem assays (depositor defined):AID2013, AID2026]; format: functional;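 also: antagonism of response to 5 µM lysophosphatidylinositol agonist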
[16] = molecular target: T6, Cannabinoid receptor 2 (Homo sapiens, UniProt P34972); assay: SAR analysis of antagonists of the Cannabinoid Receptor 2 using an Image-Based Assay - Set 3. [Related pubchem assays (depositor defined):AID2013, AID2026]; format: functional
[17] = molecular target: T6, Cannabinoid receptor 2; assay: SAR analysis of agonists of the Cannabinoid Receptor 2 using an Image-Based Assay - Set 3. [Related pubchem assays (depositor defined):AID2013, AID2026]; format: functional
[18] = molecular target: T7, Delta-type opioid receptor (Homo sapiens, UniProt P41143); assay: HTS Image-Based Screen for Antagonists of the DOR Receptor. [Related pubchem assays (depositor defined):AID1777, AID1785, AID1786, AID2133]; format: functional
[19] = molecular target: Mu-type opioid receptor (Homo sapiens, UniProt P35372); assay: HTS Image-Based Screen for Agonists of the MOR Receptor. [Related pubchem assays (depositor defined):AID1777, AID1785, AID1786, AID2133]; format: functional;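 also: imaging of beta-arrestin GFP recruitment into spots after receptor activation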
[20] = molecular target: T7, Delta-type opioid receptor; assay: HTS Image-Based Screen for Agonists of the DOR Receptor. [Related pubchem assays (depositor defined):AID1777, AID1786, AID2133]; format: functional
[21] = molecular target: T8, Kappa-type opioid receptor (Homo sapiens, UniProt P41145); format: functional
[22] = molecular target: T8, Kappa-type opioid receptor; format: functional; remark: listed apart in the source

T5 sequence (P21554 whole entry): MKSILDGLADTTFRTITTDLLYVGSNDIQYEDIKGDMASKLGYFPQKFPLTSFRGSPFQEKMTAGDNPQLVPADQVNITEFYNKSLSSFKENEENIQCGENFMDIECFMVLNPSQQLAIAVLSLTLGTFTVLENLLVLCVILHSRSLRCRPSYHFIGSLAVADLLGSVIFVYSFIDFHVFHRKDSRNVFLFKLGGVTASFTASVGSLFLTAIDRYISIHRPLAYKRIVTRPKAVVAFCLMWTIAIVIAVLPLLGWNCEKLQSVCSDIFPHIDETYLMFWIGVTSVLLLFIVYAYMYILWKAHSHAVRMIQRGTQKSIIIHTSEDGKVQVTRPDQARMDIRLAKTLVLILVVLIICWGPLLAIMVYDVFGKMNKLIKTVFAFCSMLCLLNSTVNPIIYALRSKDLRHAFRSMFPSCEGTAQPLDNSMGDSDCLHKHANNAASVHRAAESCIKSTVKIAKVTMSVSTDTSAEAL
T4 sequence (Q9HC97 whole entry): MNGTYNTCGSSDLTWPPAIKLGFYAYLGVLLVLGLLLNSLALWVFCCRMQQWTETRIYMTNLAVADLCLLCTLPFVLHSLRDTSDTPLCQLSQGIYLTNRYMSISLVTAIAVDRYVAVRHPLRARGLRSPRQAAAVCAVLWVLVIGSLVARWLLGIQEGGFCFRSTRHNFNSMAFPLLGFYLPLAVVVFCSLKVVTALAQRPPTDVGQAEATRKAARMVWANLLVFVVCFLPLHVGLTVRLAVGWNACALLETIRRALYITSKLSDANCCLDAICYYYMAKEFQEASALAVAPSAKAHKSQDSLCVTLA
T7 sequence (P41143 whole entry): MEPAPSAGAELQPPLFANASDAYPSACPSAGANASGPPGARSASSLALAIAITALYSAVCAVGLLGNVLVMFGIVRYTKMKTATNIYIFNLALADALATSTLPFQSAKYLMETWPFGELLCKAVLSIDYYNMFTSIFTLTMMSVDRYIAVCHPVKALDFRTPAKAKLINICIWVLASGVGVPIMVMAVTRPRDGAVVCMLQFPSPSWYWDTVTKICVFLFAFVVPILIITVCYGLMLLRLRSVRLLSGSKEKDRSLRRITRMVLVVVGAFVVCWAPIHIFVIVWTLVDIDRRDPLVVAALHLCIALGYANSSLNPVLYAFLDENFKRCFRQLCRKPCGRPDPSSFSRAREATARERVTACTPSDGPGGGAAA
T8 sequence (P41145 whole entry): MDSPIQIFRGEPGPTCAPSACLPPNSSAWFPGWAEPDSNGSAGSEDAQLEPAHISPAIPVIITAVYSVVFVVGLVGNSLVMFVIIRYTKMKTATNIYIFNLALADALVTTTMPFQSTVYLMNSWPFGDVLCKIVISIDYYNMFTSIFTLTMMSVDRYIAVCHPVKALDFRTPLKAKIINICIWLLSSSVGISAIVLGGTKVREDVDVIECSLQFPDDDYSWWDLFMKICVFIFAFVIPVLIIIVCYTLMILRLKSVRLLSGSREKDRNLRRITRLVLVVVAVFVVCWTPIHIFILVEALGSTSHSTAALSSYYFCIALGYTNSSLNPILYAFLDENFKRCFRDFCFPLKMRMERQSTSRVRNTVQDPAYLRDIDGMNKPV
T1 sequence (P98170 whole entry): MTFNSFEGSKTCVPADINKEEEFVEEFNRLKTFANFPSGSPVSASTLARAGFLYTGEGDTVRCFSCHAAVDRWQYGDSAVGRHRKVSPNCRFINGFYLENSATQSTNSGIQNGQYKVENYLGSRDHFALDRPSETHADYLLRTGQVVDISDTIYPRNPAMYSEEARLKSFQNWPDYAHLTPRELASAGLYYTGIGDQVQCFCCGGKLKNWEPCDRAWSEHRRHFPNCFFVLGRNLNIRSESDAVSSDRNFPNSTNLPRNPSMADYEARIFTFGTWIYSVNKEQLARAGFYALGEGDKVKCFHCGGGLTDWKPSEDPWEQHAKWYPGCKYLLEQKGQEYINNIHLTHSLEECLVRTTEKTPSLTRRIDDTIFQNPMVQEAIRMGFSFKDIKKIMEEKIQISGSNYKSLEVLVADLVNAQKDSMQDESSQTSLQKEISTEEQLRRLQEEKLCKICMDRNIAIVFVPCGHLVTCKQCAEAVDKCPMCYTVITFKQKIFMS
T6 sequence (P34972 whole entry): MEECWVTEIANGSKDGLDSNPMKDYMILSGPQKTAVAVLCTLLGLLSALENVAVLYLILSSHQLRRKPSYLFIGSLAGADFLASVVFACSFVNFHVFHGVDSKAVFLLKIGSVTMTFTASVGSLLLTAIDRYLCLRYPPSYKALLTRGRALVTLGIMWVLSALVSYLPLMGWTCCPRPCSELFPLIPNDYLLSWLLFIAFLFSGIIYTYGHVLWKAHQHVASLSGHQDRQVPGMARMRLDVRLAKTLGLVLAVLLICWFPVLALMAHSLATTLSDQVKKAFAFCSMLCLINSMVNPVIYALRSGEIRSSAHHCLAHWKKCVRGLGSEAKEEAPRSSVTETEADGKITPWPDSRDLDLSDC
Intestinal-type alkaline phosphatase (Homo sapiens, UniProt P09923), sequence (P09923 whole entry): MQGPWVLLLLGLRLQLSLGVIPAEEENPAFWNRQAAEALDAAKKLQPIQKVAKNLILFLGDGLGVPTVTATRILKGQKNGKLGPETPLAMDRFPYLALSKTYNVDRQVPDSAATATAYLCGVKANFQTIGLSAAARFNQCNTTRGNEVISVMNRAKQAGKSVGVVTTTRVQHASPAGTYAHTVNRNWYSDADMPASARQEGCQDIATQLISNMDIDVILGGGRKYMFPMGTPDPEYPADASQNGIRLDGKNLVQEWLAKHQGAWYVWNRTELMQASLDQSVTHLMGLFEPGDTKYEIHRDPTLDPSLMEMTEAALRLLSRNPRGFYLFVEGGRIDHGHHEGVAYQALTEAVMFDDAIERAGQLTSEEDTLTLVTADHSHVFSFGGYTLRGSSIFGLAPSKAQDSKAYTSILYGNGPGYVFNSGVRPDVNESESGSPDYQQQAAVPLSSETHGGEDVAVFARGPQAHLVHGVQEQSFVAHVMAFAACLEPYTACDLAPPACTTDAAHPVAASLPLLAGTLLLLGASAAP
26S proteasome non-ATPase regulatory subunit 14, sequence (O00487 whole entry): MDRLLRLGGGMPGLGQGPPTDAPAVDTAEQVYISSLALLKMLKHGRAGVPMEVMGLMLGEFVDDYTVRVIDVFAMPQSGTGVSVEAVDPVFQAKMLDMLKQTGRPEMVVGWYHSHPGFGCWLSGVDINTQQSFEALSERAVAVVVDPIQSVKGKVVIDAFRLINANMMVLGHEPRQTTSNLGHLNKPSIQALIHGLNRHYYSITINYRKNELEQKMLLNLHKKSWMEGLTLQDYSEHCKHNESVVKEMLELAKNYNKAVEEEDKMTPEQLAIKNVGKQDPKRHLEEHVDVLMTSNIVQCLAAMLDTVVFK
Mu-type opioid receptor, sequence (P35372 whole entry): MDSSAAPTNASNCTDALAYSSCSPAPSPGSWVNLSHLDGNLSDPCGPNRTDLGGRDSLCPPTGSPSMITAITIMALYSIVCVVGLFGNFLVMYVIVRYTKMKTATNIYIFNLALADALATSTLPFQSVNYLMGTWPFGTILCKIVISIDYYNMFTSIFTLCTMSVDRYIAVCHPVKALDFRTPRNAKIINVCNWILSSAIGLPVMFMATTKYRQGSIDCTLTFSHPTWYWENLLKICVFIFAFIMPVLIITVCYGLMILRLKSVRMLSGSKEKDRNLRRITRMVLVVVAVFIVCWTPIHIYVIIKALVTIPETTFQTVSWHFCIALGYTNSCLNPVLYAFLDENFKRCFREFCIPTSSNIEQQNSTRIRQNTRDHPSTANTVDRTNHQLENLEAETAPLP
Intestinal-type alkaline phosphatase (Mus musculus, UniProt P24822), sequence (P24822 whole entry): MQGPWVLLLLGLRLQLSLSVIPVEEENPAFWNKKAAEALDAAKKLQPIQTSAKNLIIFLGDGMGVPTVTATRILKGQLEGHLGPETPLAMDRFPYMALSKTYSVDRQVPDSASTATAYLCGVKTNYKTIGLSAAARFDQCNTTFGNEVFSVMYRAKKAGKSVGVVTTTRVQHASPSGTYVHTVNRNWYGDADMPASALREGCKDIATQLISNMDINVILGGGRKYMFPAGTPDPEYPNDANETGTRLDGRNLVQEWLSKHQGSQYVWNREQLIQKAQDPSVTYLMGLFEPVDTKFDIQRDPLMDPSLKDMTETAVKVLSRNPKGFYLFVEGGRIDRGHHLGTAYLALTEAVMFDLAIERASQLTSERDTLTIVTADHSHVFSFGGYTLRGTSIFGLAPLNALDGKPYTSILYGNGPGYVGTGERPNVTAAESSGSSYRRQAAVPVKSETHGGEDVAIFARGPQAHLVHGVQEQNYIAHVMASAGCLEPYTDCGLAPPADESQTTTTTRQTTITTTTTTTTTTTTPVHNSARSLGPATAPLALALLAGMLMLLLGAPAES
G-protein coupled receptor 55, sequence (Q9Y2T6 whole entry): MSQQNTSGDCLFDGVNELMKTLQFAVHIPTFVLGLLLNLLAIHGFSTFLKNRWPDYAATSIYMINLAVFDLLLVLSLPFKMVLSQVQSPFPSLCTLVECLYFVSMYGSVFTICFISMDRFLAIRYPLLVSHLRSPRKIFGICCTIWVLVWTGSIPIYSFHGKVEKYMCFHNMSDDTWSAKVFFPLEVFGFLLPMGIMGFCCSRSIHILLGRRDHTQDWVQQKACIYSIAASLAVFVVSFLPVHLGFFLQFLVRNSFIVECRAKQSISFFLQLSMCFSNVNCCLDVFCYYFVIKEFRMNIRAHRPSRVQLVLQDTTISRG

- IC50 [1]: > 12.5 µM (inactive)
- IC50 [2]: > 100 µM (not active)
Compound: CN1/C(=C\C=C2\N=C(c3ccc(F)cc3)OC2=O)C(C)(C)c2ccccc21

- EC50 [4]: 68 µM (active)
- EC50 [5]: 56.6 µM (active)
- EC50 [6]: 58.1 µM (active)
- IC50 [7]: 26.5 µM (active)
- IC50 [8]: 20.4 µM (active)
- IC50 [9]: 33 µM (active)
- IC50 [10]: 207 µM (active)
Compound: Cc1cc(/C=C2\SC(=S)NC2=O)c(C)[nH]1
- EC50 [3]: > 100 µM (active)

- EC50 [11]: > 32 µM (inactive)
- EC50 [12]: > 32 µM (inactive)
- IC50 [13]: > 32 µM (inactive)
- IC50 [14]: 11.7 µM (inactive)
- IC50 [15]: > 32 µM (inactive)
- IC50 [16]: > 32 µM (inactive)
- EC50 [17]: > 32 µM (inactive)
Compound: O=C(Cc1ccc(F)cc1)N1CCC(n2nc(-c3ccccc3)oc2=O)CC1

- IC50 [18]: > 32 µM (inactive)
- EC50 [19]: > 32 µM (inactive)
- EC50 [20]: > 32 µM (inactive)
- EC50 [21]: 3.82 µM
- EC50 [22]: 3.33 µM
Compound: CC(Sc1nnc(CN2CCCC2)n1Cc1ccccc1)C(=O)Nc1ccc(F)cc1 (configuration not stated)

Source: ChEMBL document CHEMBL1201862, “PubChem BioAssay data set” (2004)
